From patent EP0892802B1, “SPIRO(CYCLOPENT(B)INDOLE-PIPERIDINES) AND N-PHENYL-HYDRAZON INTERMEDIATES FOR THEIR PREPARATION, BOTH BEING ACETYLCHOLINESTERASE AND MAO INHIBITORS” (priority 1996, dated 1997) come the findings set out here.

One test addresses T1, monoamine oxidase-A (Rattus norvegicus, UniProt P21396).
T1 construct: serves as the tissue source for mitochondrial monoamine oxidase; from tissue; host or cells: rat whole brain minus cerebellum, P2 (crude mitochondrial) pellet
T1 sequence (P21396 1-526): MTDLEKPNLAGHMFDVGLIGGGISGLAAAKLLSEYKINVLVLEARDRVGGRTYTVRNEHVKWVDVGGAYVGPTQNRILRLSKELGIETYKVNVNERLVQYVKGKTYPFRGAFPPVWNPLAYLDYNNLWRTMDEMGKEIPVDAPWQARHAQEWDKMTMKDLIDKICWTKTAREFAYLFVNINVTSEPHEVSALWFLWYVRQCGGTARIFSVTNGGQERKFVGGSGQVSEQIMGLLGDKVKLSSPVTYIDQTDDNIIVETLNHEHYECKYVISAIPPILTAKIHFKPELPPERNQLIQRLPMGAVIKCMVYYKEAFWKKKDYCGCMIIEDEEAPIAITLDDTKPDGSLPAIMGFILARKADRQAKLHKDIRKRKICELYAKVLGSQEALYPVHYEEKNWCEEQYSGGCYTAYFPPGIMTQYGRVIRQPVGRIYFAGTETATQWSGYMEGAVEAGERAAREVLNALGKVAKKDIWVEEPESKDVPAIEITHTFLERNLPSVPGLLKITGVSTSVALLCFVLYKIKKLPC
Briefly: in vitro inhibition of monoamine oxidase assay (modified Kindt), MAO-A. Format: biochemical, Male Wistar rats. The conditions noted are these: rat whole brain minus cerebellum, mitochondrial P2 pellet; substrate [3H]-5-hydroxytryptamine 200 µM; preincubated 15 minutes, incubated 30 minutes at 37°C; log-probit analysis. As to the method:
(§1) In this assay, a modification of an assay described by M. V. Kindt, et al., Europ.
The following reagents are prepared: • 1. Phosphate buffer (0.5 M), pH 7.4; 134.4 g dibasic sodium phosphate heptahydrate q.s. to 1 liter in distilled water (A) 17.3 g monobasic sodium phosphate q.s. to 250 ml in distilled water (B) Adjust pH of A to 7.4 by slowly adding B (volumes as needed) Dilute 1:10 in distilled water (0.05 M phosphate buffer, pH 7.4) • 2. 0.25 M Sucrose (phosphate buffered): 21.4 g sucrose, q.s. to 250 ml with 0.05 M phosphate buffer • 3. Substrate for monoamine oxidase-A: • a. serotonin creatine sulphate (5-hydroxytryptamine) is obtained from Sigma Chemical Company. A 5 mM stock solution is made up in 0.01 N-hydrochloric acid. The solution is used to dilute the specific activity of the [^3H]-hydroxytryptamine. • b. [^3H]-5-hydroxytryptamine binoxalate (20-30 Ci/mmol) is obtained from New England Nuclear. • c. Add 12 µl of [^3H]-5-hydroxytryptamine to 2 ml of the 5 mM 5-hydroxytryptamine solution. (Final amine concentration in the assay is 200 µM: see below.) • 4. Substrate for monoamine oxidase-B • a. β-phenethylamine is obtained from Sigma Chemical Company. A 5 mM stock solution is made up in 0.01 N-hydrochloric acid. The solution is used to dilute the specific activity of the [^14C]-β-phenethylamine. • b. β-[ethyl-1-^14C]-phenethylamine hydrochloride (40-50 mCi/mmol) is obtained from New England Nuclear. • c. Add 12 µl of [^14C]-β-phenethylamine to 2 ml of the 5 mM β-phenethylamine solution. (Final amine concentration in the assay is 200 µM: see below.) • 5. Equal amounts of monoamine oxidase-A (5-hydroxytryptamine) and monoamine oxidase-B (β-phenethylamine) substrates are combined for simultaneously testing both monoamine oxidase types, i.e., mixed stock solution of 2.5 mM 5-hydroxytryptamine and 2.5 mM β-phenethylamine. 40 µl of this mixed solution gives a 200 µM final concentration of each amine in the assay. […]

A further test deals with T2, acetylcholinesterase (Rattus norvegicus, UniProt P37136).
T2 construct: corpora striata dissected free, weighted and homogenized in 19 volumes; from tissue; host or cells: rat brain corpora striata, crude homogenate
T2 sequence (P37136 32-614): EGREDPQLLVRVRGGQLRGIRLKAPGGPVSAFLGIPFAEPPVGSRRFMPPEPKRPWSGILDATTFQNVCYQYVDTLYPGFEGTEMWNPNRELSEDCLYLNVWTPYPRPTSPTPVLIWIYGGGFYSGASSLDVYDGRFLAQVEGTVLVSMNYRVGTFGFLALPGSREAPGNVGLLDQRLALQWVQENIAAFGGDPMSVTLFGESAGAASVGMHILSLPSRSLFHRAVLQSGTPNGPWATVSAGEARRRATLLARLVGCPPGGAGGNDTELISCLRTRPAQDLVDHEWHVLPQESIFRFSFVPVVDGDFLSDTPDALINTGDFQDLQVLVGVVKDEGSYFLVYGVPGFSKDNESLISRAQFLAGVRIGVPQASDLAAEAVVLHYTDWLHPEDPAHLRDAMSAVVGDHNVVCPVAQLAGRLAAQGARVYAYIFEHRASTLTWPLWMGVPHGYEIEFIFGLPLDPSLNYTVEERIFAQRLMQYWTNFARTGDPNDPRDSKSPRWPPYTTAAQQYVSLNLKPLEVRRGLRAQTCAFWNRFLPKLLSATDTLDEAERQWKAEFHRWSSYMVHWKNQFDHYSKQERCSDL
Kind of test: biochemical. The conditions noted are these: rat corpora striata homogenate; preincubated 10 minutes at 37°C; acetylthiocholine substrate 5 millimolar final; log-probit analysis; read-out: Inhibition of Acetylcholinesterase Activity IC50. Set-up: species or system Male Wistar rats.

Another test deals with T3, monoamine oxidase-B (Rattus norvegicus, UniProt P19643).
T3 construct: serves as the tissue source for mitochondrial monoamine oxidase; from tissue; host or cells: rat whole brain minus cerebellum, P2 (crude mitochondrial) pellet
T3 sequence (P19643 1-520): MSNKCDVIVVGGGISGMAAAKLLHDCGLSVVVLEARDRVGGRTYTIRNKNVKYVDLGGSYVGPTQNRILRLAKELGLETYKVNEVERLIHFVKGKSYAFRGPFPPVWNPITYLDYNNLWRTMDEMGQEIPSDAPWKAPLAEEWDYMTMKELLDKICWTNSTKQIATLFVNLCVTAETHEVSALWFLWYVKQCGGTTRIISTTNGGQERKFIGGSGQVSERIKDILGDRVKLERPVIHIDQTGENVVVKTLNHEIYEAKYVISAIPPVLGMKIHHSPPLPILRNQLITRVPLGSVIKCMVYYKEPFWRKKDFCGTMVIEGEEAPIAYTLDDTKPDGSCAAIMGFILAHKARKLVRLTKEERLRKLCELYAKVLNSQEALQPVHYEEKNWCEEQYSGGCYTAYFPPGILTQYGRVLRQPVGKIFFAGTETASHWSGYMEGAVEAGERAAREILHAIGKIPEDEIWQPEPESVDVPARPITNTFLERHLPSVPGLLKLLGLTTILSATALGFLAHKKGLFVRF
Kind of test: in vitro inhibition of monoamine oxidase assay (modified Kindt), MAO-B. It is filed as biochemical, Male Wistar rats. The settings on record: rat whole brain minus cerebellum, mitochondrial P2 pellet; substrate [14C]-β-phenethylamine 200 µM; preincubated 15 minutes, incubated 30 minutes at 37°C; log-probit analysis. As for the experimental part: as §1
The following reagents are prepared: • 1. Phosphate buffer (0.5 M), pH 7.4; 134.4 g dibasic sodium phosphate heptahydrate q.s. to 1 liter in distilled water (A) 17.3 g monobasic sodium phosphate q.s. to 250 ml in distilled water (B) Adjust pH of A to 7.4 by slowly adding B (volumes as needed) Dilute 1:10 in distilled water (0.05 M phosphate buffer, pH 7.4) • 2. 0.25 M Sucrose (phosphate buffered): 21.4 g sucrose, q.s. to 250 ml with 0.05 M phosphate buffer • 3. Substrate for monoamine oxidase-A: • a. serotonin creatine sulphate (5-hydroxytryptamine) is obtained from Sigma Chemical Company. A 5 mM stock solution is made up in 0.01 N-hydrochloric acid. The solution is used to dilute the specific activity of the [^3H]-hydroxytryptamine. • b. [^3H]-5-hydroxytryptamine binoxalate (20-30 Ci/mmol) is obtained from New England Nuclear. • c. Add 12 µl of [^3H]-5-hydroxytryptamine to 2 ml of the 5 mM 5-hydroxytryptamine solution. (Final amine concentration in the assay is 200 µM: see below.) • 4. Substrate for monoamine oxidase-B • a. β-phenethylamine is obtained from Sigma Chemical Company. A 5 mM stock solution is made up in 0.01 N-hydrochloric acid. […]

Description for acetylcholinesterase: 0.05M Phosphate Buffer (pH 7.2) A solution of monobasic sodium phosphate monohydrate (6.85 g) in distilled water (100 ml) is added to a solution of dibasic sodium phosphate heptahydrate (13.4 g) and distilled water (100 ml) until a pH of 7.2 was attained. The solution was diluted 1 to 10 with distilled water. • 2. […] 5,5-Dithiobisnitrobenzoic acid in Buffer The 0.05M Phosphate Buffer (pH 7.2) was added to 5.5-dithiobisnitrobenzoic acid to a total volume of 100 ml, i.e., a quantity sufficient (gs) to 100 ml. • 4. Stock Solution of Drug A 2 millimolar stock solution of the test drug is prepared in a quantity sufficient of either acetic acid or dimethyl sulfoxide to volume with 5,5-dithiobisnitrobenzoic acid in Buffer. […]
Male Wistar rats are decapitated, brains rapidly removed, corpora striata dissected free, weighted and homogenized in 19 volumes (approximately 7 mg protein/ml) of 0.05M Phosphate Buffer (pH 7.2) using a Potter-Elvejhem homogenizer. […] Enzyme activity is measured with a Beckman DU-50 spectrophotometer with the following software and instrument settings: • 1. […]
Blank values are determined for each run to control for non-enzymatic hydrolysis of substrate and these values are automatically subtracted by the Kindata program available on kinetics soft-pac module. This program also calculates the rate of absorbance change for each cuvette. […]

Usually IC50 stands for the concentration that gives 50% inhibition. On to `COc1cccc(CN2CCC3(CCc4c3n(C)c3ccccc43)CC2)c1` [1,4-Dihydro-1'-(3-methoxyphenyl)methyl-4-methylspiro[cyclopent[b]indole-3(2H), 4'piperidine]], for which, on monoamine oxidase-A, the IC50 is 51.2 µM.

Turning to `COc1ccc(CN2CCC3(CCc4c3n(C)c3ccccc43)CC2)cc1` [1,4-Dihydro-1'-(4-methoxyphenyl)methyl-4-methylspiro[cyclopent[b]indole-3(2H), 4'-piperidine]], the IC50 on acetylcholinesterase was 65.2 µM; at monoamine oxidase-A, 98.6 µM; at monoamine oxidase-B, 125 µM.

In the case of `CNC(=O)Oc1ccc2c(c1)c1c(n2C)C2(CC1)CCN(Cc1ccccc1)CC2` [1,4-Dihydro-4-methyl-7-methylaminocarbonyloxy-1'-phenylmethylspiro[cyclopent[b]indole-3(2H), 4'-piperidine]], on acetylcholinesterase, the half-maximal inhibitory concentration (IC50) is 10.5 µM.

On monoamine oxidase-A, `COc1cc(Br)c2oc(C3CCNCC3)cc2c1` [brofaromine, reference compound] showed an IC50 of 0.18 µM.
